BindingDB's records for doi:10.1016/0024-3205(91)90562-p (Technion-Israel Institute of Technology, 1991)
Values joined by “and” are separate entries in the source; they are usually repeats but may differ in a detail not shown here. Equal entries are not always repeated.

Assays:
[1] = biological target: T1, Gamma-aminobutyric acid receptor subunit alpha-1 (Homo sapiens, UniProt P14867)
T1 sequence (P14867 whole entry): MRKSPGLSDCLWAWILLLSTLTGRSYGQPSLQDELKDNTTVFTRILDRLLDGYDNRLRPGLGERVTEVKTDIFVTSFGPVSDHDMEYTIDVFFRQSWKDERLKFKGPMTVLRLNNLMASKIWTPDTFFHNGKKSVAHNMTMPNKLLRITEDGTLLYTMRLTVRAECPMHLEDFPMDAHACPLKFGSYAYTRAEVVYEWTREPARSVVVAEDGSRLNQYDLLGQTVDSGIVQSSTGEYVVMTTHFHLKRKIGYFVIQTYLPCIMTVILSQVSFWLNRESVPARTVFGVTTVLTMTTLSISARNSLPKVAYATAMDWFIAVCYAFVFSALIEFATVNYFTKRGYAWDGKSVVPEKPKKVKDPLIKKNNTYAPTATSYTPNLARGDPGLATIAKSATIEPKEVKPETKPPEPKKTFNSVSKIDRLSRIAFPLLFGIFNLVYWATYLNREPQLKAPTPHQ

[2] = biological target: Gamma-aminobutyric acid receptor subunit alpha-1 (Rattus norvegicus, UniProt P62813)
Gamma-aminobutyric acid receptor subunit alpha-1 (Rattus norvegicus, UniProt P62813), sequence (P62813 whole entry): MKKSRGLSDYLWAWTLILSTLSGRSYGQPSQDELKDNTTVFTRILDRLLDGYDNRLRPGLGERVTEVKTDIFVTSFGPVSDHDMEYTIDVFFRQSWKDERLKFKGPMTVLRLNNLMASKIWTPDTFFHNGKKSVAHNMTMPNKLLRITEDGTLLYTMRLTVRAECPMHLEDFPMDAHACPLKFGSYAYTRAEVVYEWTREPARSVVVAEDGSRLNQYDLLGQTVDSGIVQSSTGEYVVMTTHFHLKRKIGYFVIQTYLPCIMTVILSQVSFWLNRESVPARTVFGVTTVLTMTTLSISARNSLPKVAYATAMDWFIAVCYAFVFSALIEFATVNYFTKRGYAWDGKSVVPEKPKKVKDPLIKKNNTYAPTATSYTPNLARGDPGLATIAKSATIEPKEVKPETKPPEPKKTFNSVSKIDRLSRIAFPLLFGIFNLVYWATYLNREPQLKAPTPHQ

## O=C1CN=C(c2ccccc2Cl)c2cc([N+](=O)[O-])ccc2N1 [5-(2-chlorophenyl)-7-nitro-1,3-dihydro-2H-1,4-benzodiazepin-2-one]
[1]
  Ki: > 10000 nM
[2]
  Ki: > 10000 nM

## CC[C@@H](C)N(C)C(=O)c1cc2ccccc2c(-c2ccccc2Cl)n1 [PK 11195]
[1]
  Ki: 8 nM and 5 nM
[2]
  Ki: 18 nM and 3 nM and 4 nM

## CN1C(=O)CN=C(c2ccc(Cl)cc2)c2cc(Cl)ccc21 [Ro5-4864]
[1]
  Ki: 750 nM
